The subject of data set [1] is HIV-1Ba-L. Kind of data set: Inhibition of virus replication in MAGI-CCR5 cells (β-galactosidase reporter). The class given is cell-based. Put shortly:
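HeLa-derived MAGI-CCR5 cells (high CD4/CCR5, HIV-1 LTR-driven β-galactosidase) plated at 1.0×10^4 cells/well the day before infection with HIV-1Ba-L. Compounds tested at six concentrations in triplicate, with parallel uninfected plates for cytotoxicity.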

A short description of data set [2]: Cytotoxicity by MTS staining in uninfected MAGI-CCR5 cells. To be noted: human, read-out: TC50. The class given is cell-based. Put shortly: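 Uninfected MAGI-CCR5 cells (HeLa-CD4-LTR-β-gal derived, expressing CD4/CCR5) plated at 1.0×10^4 cells/well the day before, then exposed to compounds at six concentrations in triplicate alongside parallel infected assays. Viability read by MTS staining.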

A short description of data set [3]: Cytotoxicity by MTS staining in PBMCs. The class given is cell-based. To be noted: human, peripheral blood mononuclear cells (PBMC), read-out: TC50. The method, then: Cytotoxicity was assessed by MTS staining. At assay end-point, PBMC were stained with the addition of […] of the soluble tetrazolium-based dye MTS to determine cell viability and quantify compound toxicity. The plates were incubated 4 to 6 hrs at 37° C. Following incubation, the activity was assessed by reading absorbance values at 490/650 nm.

Data set [4] relates to HIV-1Ba-L. Description: HIV-1Ba-L replication in PBMCs (supernatant RT end-point). Put shortly: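 Pooled PHA-stimulated human PBMCs (5×10^4 cells/well) were infected with HIV-1Ba-L at MOI 0.1 with nine ½-log compound dilutions and cultured seven days at 37° C. Supernatant RT activity was measured by ^3H-TTP incorporation on poly rA:oligo dT (60 minutes, 37° C) and counted by scintillation.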

In another data set the test system is HIV-1 K103N, Y181C (A17). Description: HIV-1 K103N, Y181C (A17) replication in PBMCs. The class given is cell-based. Conditions: for IC50: Human immunodeficiency virus 1, PBMC; for TI (TC50/IC50): Virus A17 (K103N, Y181C) in PBMCs. From the text: In another embodiment of the present disclosure compounds are provided which inhibit the replication of HIV strains resistant to NNRTIs. Compounds in this disclosure inhibit, A17, an HIV-1 virus with mutations in the RT non-nucleoside binding pocket, K103N and Y181C, in a dose-dependent susceptibility testing manner.
The asparagine variation at residue 103 and the cysteine variation at residue 181 are known to inhibit the activity of the NNRTI's.
Evaluation Dihydropyrimidines vs. HIV-1Ba-L and HIV-1 K103N, Y181C in PBMCs

[5] abbreviates: Human immunodeficiency virus 1, HIV-1Ba-L in MAGI-CCR5 cells, 48 hours, β-galactosidase reporter expression, read-out: IC50.
Where [6] appears, read: Human immunodeficiency virus 1, PBMC, 168 h.
[7] abbreviates: Human immunodeficiency virus 1, BAL, PBMC.
[8] abbreviates: Virus Ba-L in PBMCs (Ba-L vs A17 comparison).

Like-named read-outs stand apart in the source and are kept apart here.

As usually defined, the IC50 is the concentration that gives 50% inhibition. Turning to `CC1=C(c2nc(-c3ccc(C#N)cc3)cs2)C(c2ccc(OCc3ccccc3)c(Cl)c2)NC(=O)N1` (stereo not drawn) [Example 81], the “TI (TC50/IC50)” value was “B (B < 100.0-50.0)” in the data set on HIV-1Ba-L [1] (HIV-1Ba-L in MAGI-CCR5 cells) and “A (A = TI (TC50/IC50) ≧100.0)” in the data set on HIV-1Ba-L [4] (HIV-1Ba-L in PBMCs). Moreover, the IC50 is 1 to 5 µM with HIV-1Ba-L [1] (setting [5]) and < 1 µM with HIV-1Ba-L [4] (setting [6]). Moreover, the CC50 at 48 h in data set [2] was ≥ 100 µM. For the same compound, the CC50 at 7 days in data set [3] (MTS staining) is ≥ 100 µM.

As to `CC1=C(c2nc(-c3ccc(C#N)cc3C)cs2)C(c2cc3ccccc3n2C)NC(=O)N1` (stereo not drawn) [Example 87], the “TI (TC50/IC50)” value in the data set with HIV-1Ba-L [1] (HIV-1Ba-L in MAGI-CCR5 cells) is “A (A = TI (TC50/IC50) ≧ 100.0)”; in the data set with HIV-1 K103N, Y181C (A17), “C (C < 50.0-10.0)”; in the data set with HIV-1Ba-L [4] (HIV-1Ba-L in PBMCs), “A (A = TI (TC50/IC50) ≧100.0)”; with HIV-1Ba-L [4] (setting [8]) it was “A (A = TI (TC50/IC50) ≧ 100.0)”. The IC50 in the data set with HIV-1Ba-L [1] (setting [5]) was < 1 µM; in the data set on HIV-1 K103N, Y181C (A17), 5 to 100 µM; with HIV-1Ba-L [4] (setting [7]) it was < 1 µM; in the data set on HIV-1Ba-L [4] (setting [6]) it was < 1 µM. The CC50 at 48 h in data set [2] is ≥ 100 µM. For the same compound, the CC50 at 7 days in data set [3] (A17 line of the table), in data set [3] (Ba-L line of the table) and in data set [3] (MTS staining) was ≥ 100 µM in each case.

As to `CC1=C(c2nc(-c3ccc(F)cc3)cs2)C(Cc2ccccc2)NC(=O)N1` (stereo not drawn) [Example 89], the “TI (TC50/IC50)” value is “D (D < 10.0)” in the data set with HIV-1Ba-L [1] (HIV-1Ba-L in MAGI-CCR5 cells); “D (D < 10.0)” in the data set with HIV-1 K103N, Y181C (A17); “D (D < 10.0)” in the data set on HIV-1Ba-L [4] (HIV-1Ba-L in PBMCs); “D (D < 10.0)” in the data set with HIV-1Ba-L [4] (setting [8]). The IC50 with HIV-1Ba-L [1] (setting [5]) was > 100 µM; in the data set on HIV-1 K103N, Y181C (A17), > 100 µM; in the data set with HIV-1Ba-L [4] (setting [7]), > 100 µM; in the data set with HIV-1Ba-L [4] (setting [6]), 5 to 100 µM. For the same compound, the CC50 at 48 h in data set [2] is ≥ 100 µM. Further, the CC50 at 7 days in data set [3] (A17 line of the table), in data set [3] (Ba-L line of the table) and in data set [3] (MTS staining) was ≥ 100 µM throughout.

Turning to `CC1=C(c2nc(-c3ccc(C#N)cc3)cs2)C(c2ccc(Oc3ccccc3)nc2)NC(=O)N1` (stereo not drawn) [Example 90], the “TI (TC50/IC50)” value is “A (A = TI (TC50/IC50) ≧ 100.0)” in the data set on HIV-1Ba-L [1] (HIV-1Ba-L in MAGI-CCR5 cells) and “C (C < 50.0-10.0)” in the data set on HIV-1Ba-L [4] (HIV-1Ba-L in PBMCs). Moreover, the figures for the half-inhibitory concentration (IC50) with HIV-1Ba-L [1] (setting [5]) and with HIV-1Ba-L [4] (setting [6]) were < 1 µM and 1 to 5 µM, respectively. Besides, the CC50 at 48 h in data set [2] was ≥ 100 µM. Also, the CC50 at 7 days in data set [3] (MTS staining) lay within 50 to 100 µM.

Take `CC1=C(c2nc(-c3ccc(C#N)cc3)cs2)C(c2ccc(N(C)C)nc2)NC(=O)N1` (stereo not drawn) [Example 91]: the “TI (TC50/IC50)” value in the data set with HIV-1Ba-L [1] (HIV-1Ba-L in MAGI-CCR5 cells) is on record as “A (A = TI (TC50/IC50) ≧ 100.0)”; in the data set with HIV-1Ba-L [4] (HIV-1Ba-L in PBMCs) it was “B (B < 100.0-50.0)”. The IC50 in the data set with HIV-1Ba-L [1] (setting [5]) was < 1 µM; in the data set on HIV-1Ba-L [4] (setting [6]) it was 1 to 5 µM. The CC50 at 48 h in data set [2] was ≥ 100 µM. Further, the CC50 at 7 days in data set [3] (MTS staining) was ≥ 100 µM.

Take `CC1=C(c2nc(-c3ccc(C#N)cc3)cs2)C(c2ccc(Cl)nc2Cl)NC(=O)N1` (stereo not drawn) [Example 92]: the figures for the “TI (TC50/IC50)” value in the data set with HIV-1Ba-L [1] (HIV-1Ba-L in MAGI-CCR5 cells) and in the data set with HIV-1Ba-L [4] (HIV-1Ba-L in PBMCs) were “A (A = TI (TC50/IC50) ≧ 100.0)” and “C (C < 50.0-10.0)”, respectively. Besides, the IC50 was < 1 µM in the data set with HIV-1Ba-L [1] (setting [5]) and 1 to 5 µM in the data set with HIV-1Ba-L [4] (setting [6]). Also, the CC50 at 48 h in data set [2] is ≥ 100 µM. Moreover, the CC50 at 7 days in data set [3] (MTS staining) is 50 to 100 µM.

On to `CC1=C(c2nc(-c3ccc(C#N)cc3)cs2)C(c2ccc(Br)nc2)NC(=O)N1` (stereo not drawn) [Example 93], for which the “TI (TC50/IC50)” value in the data set with HIV-1Ba-L [1] (HIV-1Ba-L in MAGI-CCR5 cells) was “A (A = TI (TC50/IC50) ≧ 100.0)”; with HIV-1 K103N, Y181C (A17), “D (D < 10.0)”; with HIV-1Ba-L [4] (HIV-1Ba-L in PBMCs) it was “A (A = TI (TC50/IC50) ≧100.0)”; in the data set on HIV-1Ba-L [4] (setting [8]), “A (A = TI (TC50/IC50) ≧ 100.0)”. Also, the IC50 with HIV-1Ba-L [1] (setting [5]) was < 1 µM; with HIV-1 K103N, Y181C (A17) it was > 100 µM; in the data set on HIV-1Ba-L [4] (setting [7]), < 1 µM; with HIV-1Ba-L [4] (setting [6]) it was < 1 µM. Besides, the CC50 at 48 h in data set [2] was ≥ 100 µM. The CC50 at 7 days in data set [3] (A17 line of the table), in data set [3] (Ba-L line of the table) and in data set [3] (MTS staining) was ≥ 100 µM throughout.

For `Cc1nnc(C(=O)NC(C)(C)c2nc(C(=O)NCc3ccc(F)cc3)c(O)c(=O)n2C)o1` [Raltegravir, reference compound], the figures for the “TI (TC50/IC50)” value in the data set with HIV-1Ba-L [1] (HIV-1Ba-L in MAGI-CCR5 cells) and with HIV-1Ba-L [4] (HIV-1Ba-L in PBMCs) were >3.85 and >371.0, respectively. In addition, the IC50 in the data set on HIV-1Ba-L [1] (Human immunodeficiency virus 1, MAGI-CCR5, 48 h) worked out at 0.026 µM; with HIV-1Ba-L [4] (setting [6]), 0.003 µM. In addition, the CC50 at 48 h in data set [2] is > 100 µM. In addition, in data set [3] (MTS staining), the CC50 at 7 days was > 1 µM.
